From ChEMBL document CHEMBL1124555, “9-Amino-1,2,3,4-tetrahydroacridin-1-ols: synthesis and evaluation as potential Alzheimer's disease therapeutics” (J Med Chem, 1989)

Tests used:
[1] = Toxicity was evaluated in rats, after intraperitoneal administration;Value ranges from(40-80); format: organism-based; settings: rat, in vivo, ip
[2] = biological target: Sodium-dependent dopamine transporter (Rattus norvegicus, UniProt P23977); format: functional
Description: Inhibition of the reuptake of dopamine in rat corpora striata.

[3] = biological target: Sodium-dependent serotonin transporter (Rattus norvegicus, UniProt P31652); format: functional
Chain of Sodium-dependent serotonin transporter (P31652 whole entry): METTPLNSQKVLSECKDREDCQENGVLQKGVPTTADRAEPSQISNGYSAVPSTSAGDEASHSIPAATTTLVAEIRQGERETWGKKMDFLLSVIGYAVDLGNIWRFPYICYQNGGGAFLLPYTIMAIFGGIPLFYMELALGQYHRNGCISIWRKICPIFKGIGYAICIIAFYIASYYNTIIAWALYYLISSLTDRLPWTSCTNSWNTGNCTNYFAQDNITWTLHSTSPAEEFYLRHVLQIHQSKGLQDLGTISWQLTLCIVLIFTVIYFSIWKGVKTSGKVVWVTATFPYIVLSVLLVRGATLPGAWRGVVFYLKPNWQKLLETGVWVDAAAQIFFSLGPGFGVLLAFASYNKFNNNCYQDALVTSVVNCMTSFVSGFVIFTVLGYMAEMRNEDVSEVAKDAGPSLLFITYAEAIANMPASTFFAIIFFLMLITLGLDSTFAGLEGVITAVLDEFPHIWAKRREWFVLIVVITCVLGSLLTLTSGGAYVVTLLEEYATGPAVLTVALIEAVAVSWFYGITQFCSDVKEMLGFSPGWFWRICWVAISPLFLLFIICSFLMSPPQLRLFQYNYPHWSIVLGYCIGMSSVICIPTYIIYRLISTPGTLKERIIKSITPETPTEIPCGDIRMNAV
Description: Inhibition of serotonin reuptake in rat whole brains without cerebellum

[4] = biological target: T1, Acetylcholinesterase (Rattus norvegicus, UniProt P37136)
T1 sequence (P37136 whole entry): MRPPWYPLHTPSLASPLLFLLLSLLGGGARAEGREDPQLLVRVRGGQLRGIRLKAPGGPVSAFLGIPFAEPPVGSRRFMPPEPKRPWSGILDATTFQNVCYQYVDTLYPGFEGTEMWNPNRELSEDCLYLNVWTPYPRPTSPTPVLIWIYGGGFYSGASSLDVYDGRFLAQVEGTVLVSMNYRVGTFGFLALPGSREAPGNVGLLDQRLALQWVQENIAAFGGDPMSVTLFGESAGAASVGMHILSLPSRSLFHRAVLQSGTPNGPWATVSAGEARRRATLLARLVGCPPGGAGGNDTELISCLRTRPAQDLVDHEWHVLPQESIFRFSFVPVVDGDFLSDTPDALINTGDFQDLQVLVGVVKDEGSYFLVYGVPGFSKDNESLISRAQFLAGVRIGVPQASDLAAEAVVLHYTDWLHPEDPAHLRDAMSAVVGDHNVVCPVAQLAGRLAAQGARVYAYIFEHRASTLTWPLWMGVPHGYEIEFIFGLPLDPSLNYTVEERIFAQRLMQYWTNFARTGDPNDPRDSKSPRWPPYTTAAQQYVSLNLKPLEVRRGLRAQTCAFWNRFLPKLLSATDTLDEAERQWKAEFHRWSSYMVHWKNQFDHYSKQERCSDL
Description: In vitro inhibition against acetylcholinesterase in rat striata.

[5] = species on record: Rattus norvegicus; assay: cells
Description: Compound was evaluated for inhibition of the reuptake of norepinephrine

[6] = species on record: Mus musculus; format: functional; settings: at 0.16 mg/kg
Description: Reversal of scopolamine-induced memory impairment in mice at 0.16 mg/Kg administered subcutaneously.

[7] = Toxicity was evaluated in rats, after intraperitoneal administration;Value ranges from (40-80); format: organism-based; settings: rat, in vivo, ip
[8] = species on record: Mus musculus; format: functional; settings: at 0.63 mg/kg
Description: Reversal of scopolamine-induced memory impairment in mice at 0.63 mg/Kg administered subcutaneously.

[9] = species on record: Mus musculus; format: functional; settings: at […]
Description: Reversal of scopolamine-induced memory impairment in mice at 0.31 mg/Kg administered subcutaneously.

[10] = species on record: Mus musculus; format: functional; settings: at 1.25 mg/kg
Description: Reversal of scopolamine-induced memory impairment in mice at 1.25 mg/Kg administered subcutaneously.

[11] = biological target: Norepinephrine transporter (Rattus norvegicus, UniProt Q9WTR4)
Chain of Norepinephrine transporter (Q9WTR4 whole entry): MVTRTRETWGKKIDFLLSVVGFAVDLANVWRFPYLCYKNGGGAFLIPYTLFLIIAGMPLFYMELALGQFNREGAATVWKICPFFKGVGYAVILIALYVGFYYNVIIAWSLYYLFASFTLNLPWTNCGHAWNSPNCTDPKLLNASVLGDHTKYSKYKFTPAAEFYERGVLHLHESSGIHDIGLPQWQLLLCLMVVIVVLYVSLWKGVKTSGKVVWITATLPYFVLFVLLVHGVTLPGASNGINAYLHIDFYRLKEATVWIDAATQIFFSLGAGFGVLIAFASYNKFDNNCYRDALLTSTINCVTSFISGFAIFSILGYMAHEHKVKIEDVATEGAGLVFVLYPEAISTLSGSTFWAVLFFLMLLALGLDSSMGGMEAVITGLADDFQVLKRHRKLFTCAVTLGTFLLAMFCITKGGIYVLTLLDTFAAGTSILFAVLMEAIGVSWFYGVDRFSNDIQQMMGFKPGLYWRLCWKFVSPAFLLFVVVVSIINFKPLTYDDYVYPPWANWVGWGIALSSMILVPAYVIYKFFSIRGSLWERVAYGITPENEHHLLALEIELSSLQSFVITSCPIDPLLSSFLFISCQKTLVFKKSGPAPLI
Description: Inhibition of norepinephrine reuptake in rat whole brains minus cerebellar

[12] = species on record: Mus musculus; format: functional; settings: at 2.5 mg/kg
Description: Reversal of scopolamine-induced memory impairment in mice at 2.5 mg/Kg administered subcutaneously.

[13] = species on record: Mus musculus; format: functional; settings: at 5 mg/kg
Description: Reversal of scopolamine-induced memory impairment in mice at 5 mg/Kg administered subcutaneously.

[14] = system: Mus musculus; assay: Intra peritoneal administration for the reversal of tetrabenazine ptosis in mice; format: functional
[15] = in vivo; settings: rat, ip
Description: Toxicity evaluated in rats after intraperitoneal administration.

[16] = species on record: Mus musculus; assay: Compound was tested in nbm model of mice, for the dose at which reversal of retention deficit in lesioned animals and enhanced learning in sham-pperated animals was observed; format: functional
[17] = Toxicity was evaluated in mice, after intraperitoneal administration;Value ranges from(83-107); format: organism-based; settings: mouse, in vivo, ip
[18] = biological target: T1, Acetylcholinesterase; assay: In vitro inhibition against acetylcholinesterase in rat striatal; format: functional
[19] = Toxicity was evaluated in rats, after intraperitoneal administration;Value ranges from 50-60; format: organism-based; settings: rat, in vivo, ip
[20] = Toxicity was evaluated in rats, after intraperitoneal administration;Value ranges from (40-80).; format: organism-based; settings: rat, in vivo, ip
[21] = in vivo; settings: mouse, ip

Chain of Sodium-dependent dopamine transporter (P23977 whole entry): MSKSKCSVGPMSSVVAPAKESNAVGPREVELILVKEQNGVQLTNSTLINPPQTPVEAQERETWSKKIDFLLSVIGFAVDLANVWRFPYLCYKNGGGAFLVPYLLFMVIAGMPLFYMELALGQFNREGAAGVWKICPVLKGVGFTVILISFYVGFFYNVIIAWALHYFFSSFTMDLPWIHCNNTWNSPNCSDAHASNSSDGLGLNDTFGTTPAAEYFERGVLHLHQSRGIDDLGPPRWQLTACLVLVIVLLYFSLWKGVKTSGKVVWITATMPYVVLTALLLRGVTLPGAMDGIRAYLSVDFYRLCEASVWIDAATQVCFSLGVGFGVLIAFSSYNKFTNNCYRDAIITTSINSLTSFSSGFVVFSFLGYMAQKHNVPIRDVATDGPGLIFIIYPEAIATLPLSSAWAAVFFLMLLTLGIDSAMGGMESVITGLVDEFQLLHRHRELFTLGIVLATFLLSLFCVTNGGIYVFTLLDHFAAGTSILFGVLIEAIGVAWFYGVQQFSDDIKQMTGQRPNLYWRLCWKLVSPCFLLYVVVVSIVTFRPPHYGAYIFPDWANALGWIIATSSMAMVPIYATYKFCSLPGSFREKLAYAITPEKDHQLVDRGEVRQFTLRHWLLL

CCCNc1c2c(nc3ccccc13)CCCC2O (centres undefined)
LD50 [1]: < 80 mg/kg | IC50 [2]: > 20 µM | IC50 [3]: > 20 µM | IC50 [4]: 13.3 µM | IC50 [5]: > 20 µM

CNc1c2c(nc3ccccc13)CCCC2O (centres undefined)
IC50 [2]: > 20 µM | Animals [6]: 0% | IC50 [3]: > 20 µM | IC50 [4]: 1.76 µM | LD50 [7]: < 80 mg/kg | Animals [8]: 0% | Animals [9]: 7% | Animals [10]: 7% | IC50 [11]: > 20 µM | Animals [12]: 7% | Animals [13]: 7%

Cc1ccccc1CNc1c2c(nc3ccccc13)CCCC2O (centres undefined)
LD50 [1]: < 80 mg/kg | IC50 [2]: 0.25 µM | Animals [6]: 0% | IC50 [3]: 9 µM | ED50 [14]: 25.3 mg/kg | IC50 [4]: 5.89 µM | Animals [8]: 7% | Animals [9]: 7% | Animals [10]: 13% | IC50 [11]: 0.053 µM | Animals [12]: 7% | Animals [13]: 0%

Nc1c2c(nc3ccc(Cl)cc13)CCCC2O (centres undefined)
IC50 [4]: 24.7 µM | IC50 [5]: > 10 µM | LD50 [15]: 80 mg/kg

OC1CCCc2nc3ccccc3c(NCc3ccccc3C(F)(F)F)c21 (centres undefined)
IC50 [2]: 0.95 µM | Animals [6]: 38% | IC50 [3]: 3.8 µM | ED50 [14]: 16.2 mg/kg | IC50 [4]: 13.3 µM | Animals [8]: 13% | Animals [9]: 23% | Animals [10]: 20% | IC50 [11]: 0.081 µM | Animals [12]: 13% | LD50 [15]: 80 mg/kg | Animals [13]: 33%

OC1CCCc2nc3ccccc3c(NCc3ccccc3)c21 (centres undefined) [SURONACRINE]
Dose [16]: 20 mg/kg | IC50 [2]: 0.3 µM | Animals [6]: 27% | IC50 [3]: 11 µM | LD50 [17]: 94 mg/kg | ED50 [14]: 27.4 mg/kg | Animals [8]: 20% | Animals [9]: 50% | Animals [10]: 13% | IC50 [11]: 0.07 µM | Animals [12]: 21% | IC50 [18]: 32.2 µM | LD50 [19]: < 60 mg/kg | Animals [13]: 36%

Nc1c2c(nc3ccccc13)CCCC2O (centres undefined) [VELNACRINE]
IC50 [2]: > 20 µM | Animals [6]: 14% | IC50 [3]: > 20 µM | LD50 [20]: < 80 mg/kg | IC50 [4]: 4 µM | Animals [8]: 33% | Animals [9]: 20% | Animals [10]: 20% | IC50 [11]: > 20 µM | Animals [12]: 31% | Animals [13]: 33% | LD50 [21]: 162 mg/kg
